Paper PMC6588435 (Cell chemical biology, 2019)
Converted amounts (≈) assume the structure as drawn. “And” between values parts separate entries of the source, which are not always exact repeats. Identical values can stand only once. Like-named read-outs stand apart in the source and are kept apart here.

Columns and labels:
[1] = target: T1, Mtb FDTS (Mycobacterium tuberculosis, UniProt P9WG57); assay: Differential scanning calorimetry of Mtb FDTS; settings: DSC; control (FDTS, dUMP, FAD) 66.6 °C
T1 sequence (P9WG57 whole entry): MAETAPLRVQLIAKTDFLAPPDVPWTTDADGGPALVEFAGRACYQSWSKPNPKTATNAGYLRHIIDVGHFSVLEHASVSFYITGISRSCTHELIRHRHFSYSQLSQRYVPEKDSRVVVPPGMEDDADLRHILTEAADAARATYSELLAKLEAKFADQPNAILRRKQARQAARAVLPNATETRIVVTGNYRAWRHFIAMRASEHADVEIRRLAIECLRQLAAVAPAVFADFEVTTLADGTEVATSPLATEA

[2] = target: Mtb Rv2671 (Mycobacterium tuberculosis, UniProt P71968); assay: Mtb Rv2671 enzyme inhibition assay; type: biochemical
[3] = target: T2, Mtb DHFR (Mycobacterium tuberculosis, UniProt P9WNX1); assay: biochemical
T2 sequence (P9WNX1 whole entry): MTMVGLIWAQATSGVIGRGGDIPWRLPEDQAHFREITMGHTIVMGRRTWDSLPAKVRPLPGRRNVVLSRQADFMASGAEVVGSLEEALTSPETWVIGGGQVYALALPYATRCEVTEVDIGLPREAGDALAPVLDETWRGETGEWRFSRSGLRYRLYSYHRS

[4] = target: T1, Mtb FDTS; assay: Mtb FDTS NADPH oxidation assay; type: biochemical
[5] = target: T2, Mtb DHFR; assay: biochemical; remark: listed apart in the source
[6] = target: T1, Mtb FDTS; assay: HPLC analysis of Mtb FDTS reaction; type: biochemical
[7] = system: Mtb Erdman (ATCC 35801); assay: In vitro susceptibility testing; type: cell-based, Mycobacterium tuberculosis
[8] = target: T2, Mtb DHFR; type: binding; settings: DSC, with NADPH; control (Mtb DHFR+NADPH) 65 °C
[9] = system: Mtb cells; settings: treatment of Mtb cells; ref Nixon et al. (2014); cited from earlier work
[10] = system: Mtb Erdman cells; type: cell-based, Mycobacterium tuberculosis
[11] = read-out: Mtb Rv2671 Ki, 50 μM NADPH

With `Nc1nc(=O)c2nc(CNc3ccc(C(=O)NC(CCC(=O)O)C(=O)O)c(O)c3)cnc2[nH]1` (centres unmarked) [PAS-M, 2-[(4-{[(2-amino-4-oxo-1,4-dihydropteridin-6-yl)methyl]amino}-2-hydroxyphenyl)formamido] pentanedioic acid] the “Mtb FDTS Tm” value [1] was 71.9 °C, the Ki [2] was 27.5 µM and the koff ([3]; read-out: Mtb DHFR koff) was 0.0107 s⁻¹. It also gave a residence time ([3]; read-out: Mtb DHFR tR (residence time)) of 1.5 ± 0.3 min, an IC50 [4] of 14.4 ± 1.5 µM and a Ki [5] of 0.75 ± 0.12 µM. For the same compound, the “decrease in dTMP levels compared to control” value [6] was ~ 2.5 fold.
With `CCc1nc(N)nc(N)c1C#C[C@H](C)c1cc(-c2ccncc2)ccc1OC` [UCP1063] the MIC [7] was 2 µg/mL (≈ 5.36 µM), the “Mtb DHFR Tm” value [8] was 71 °C and 71 ± 2.7 °C and the Ki [2, 11] was 0.052 ± 0.0062 µM.
Compound `CCc1nc(N)nc(N)c1C#C[C@@H](C)c1cc(-c2ccc(C(=O)O)cc2)ccc1OC` [UCP1164] has an MIC [7] of 0.5 µg/mL (≈ 1.2 µM) and a Ki [2, 11] of 0.12 ± 0.0085 µM.
`CN(Cc1cnc2nc(N)nc(N)c2n1)c1ccc(C(=O)N[C@@H](CCC(=O)O)C(=O)O)cc1` [MTX, Methotrexate] gave an MIC ([7]; Mycobacterium tuberculosis, ATCC35801|ERDMAN) of over 100 µg/mL.
For `CC1(C)N=C(N)N=C(N)N1OCCCOc1cc(Cl)c(Cl)cc1Cl` [WR99210], the “decrease in the concentration of SAM” value [9] is given as 20 fold.
In the case of `Nc1ccc(C(=O)O)c(O)c1` [PAS, para-aminosalicylic acid], the MIC ([7]; Mycobacterium tuberculosis, ATCC35801|ERDMAN, read-out: MIC, WT Mtb) is reported as 0.5 µg/mL (≈ 3.27 µM), the “reduction of 14C incorporation to the FAME/MAME fraction” value ([10]; 0.36 μg/ml) is reported as 52% and the “effect on methoxymycolic acids” value ([10]; TLC of FAME/MAME) is reported as “significant reduction”.
